{"source": "patent US20100056606A1", "about": "“Combination therapy using budesonide and antisense oligonucleotide targeted to IL4-receptor alpha” (ISIS Pharmaceuticals, Inc., priority 2005, published 2010)", "key": {"OVA sensitized mice [1]": {"system": "OVA sensitized mice", "assay": "Acute allergic inflammation mouse model with inhaled budesonide and/or ISIS 231894", "format": "in vivo", "procedure": "In the mouse model of allergic inflammation, mice are sensitized and challenged with aerosolized chicken ovalbumin (OVA). Airway responsiveness is assessed by inducing airflow obstruction using a noninvasive method whereby unrestrained conscious OVA sensitized mice are placed into the main chamber of a plethysmograph (Buxco Electronics, Inc. Troy, N.Y.) and challenged with aerosolized methacholine. Pressure difference between this chamber and a reference chamber is used to extrapolate minute volume, breathing frequency and enhanced pause (Penh). Penh is a dimensionless parameter that is a function of total pulmonary airflow (i.e. the sum of the airflow in the upper and lower respiratory tracts) during the respiratory cycle of a mouse and is lower when airflow is greater.\nFor the acute model of allergic inflammation, mice were sensitized with 20 μg of alum-precipitated OVA was injected intraperitoneally on days 0 and 14. On days 24, 25 and 26, animals were exposed for 20 minutes to 1% OVA (in saline) by ultrasonic nebulization. On days 17, 19, 21, 24 and 26 animals were dosed with vehicle alone (saline), 1 μg/kg or 10 μg/kg of ISIS 231894 or the mismatch control oligonucleotide. Oligonucleotides or vehicle were suspended in 0.9% sodium chloride and delivered via inhalation using a nose-only aerosol delivery exposure system. A Lovelace nebulizer set at a flow rate of 1.4 liter per minute feeding into a total flow rate of 10 liters per minute was used to deliver the oligonucleotide. The exposure chamber was equilibrated with an oligonucleotide aerosol solution for 5 minutes before mice were placed in a restraint tube attached to the chamber. Restrained mice were treated for a total of 10 minutes. Analysis was performed on day 28.\nThe acute mouse model of allergic inflammation was used to determine if co-administration of inhaled IL-4R alpha antisense oligonucleotide would enhance the activity of inhaled budesonide, or reduce the dose required to produce anti-inflammatory activity. As described in Example 6, mice were sensitized with alum-precipitated OVA at day 0 and day 14 and nebulized with OVA in saline on days 24, 25 and 26. All mice were analyzed on day 28. Budesonide (0.3, 3, 30, and 300 μg/kg dissolved in PBS Containing 20% DMSO) was administered by nose-only aerosol exposure beginning on day 23 (24 and 20 hours before OVA exposure) and then daily through day 26, one hour prior to daily OVA exposure. The 30 μg/kg dose was also administered twice a day (bid) from day 23-26 as a separate group. As in Example 6, ISIS 231894 was administered by nose-only aerosol exposure at day 17, 19, 21, 23 and 26.\nThe effect of budesonide and/or ISIS 231894 treatment on AHR, BAL eosinophil infiltration and mucus accumulation (number of PAS-positive airways) were determined."}, "OVA sensitized mice [2]": {"system": "OVA sensitized mice", "assay": "Allergic rhinitis mouse model, intranasal administration", "format": "in vivo", "description": "In a mouse model of allergic rhinitis, animals were sensitized intraperitoneally with alum-precipitated OVA on days 1, 5, 10 and 15. OVA diluted with saline was administered intranasally (25 μL of 500 μg OVA in each nare) daily, on days 18-22, 25-29, and 32-35. ISIS 231894 and budesonide were administered intranasally, with budesonide administration one hour before each intranasal OVA challenge. ISIS 231894 was administered on days 11, 13, 15, and one hour before each intranasal OVA challenge. Endpoints were evaluated on day 36 and included nasal mucus accumulation (nasal histopathology) nasal eosinophilia, neutrophilia (by nasal lavage analysis and microscopic eosinophil counts in epithelial tissue) and allergic symptoms (numbers of sneezes and nose-rubs observed over a fixed time period)."}, "OVA sensitized mice [3]": {"system": "OVA sensitized mice", "assay": "Mouse model of allergic inflammation, chronic model (Penh, BAL cells, cytokines)", "format": "in vivo", "settings": "2.5 mg/kg intraperitoneal, day 76", "description": "In the mouse model of allergic inflammation, mice are sensitized and challenged with aerosolized chicken ovalbumin (OVA). Airway responsiveness is assessed by inducing airflow obstruction using a noninvasive method whereby unrestrained conscious OVA sensitized mice are placed into the main chamber of a plethysmograph (Buxco Electronics, Inc. Troy, N.Y.) and challenged with aerosolized methacholine. Pressure difference between this chamber and a reference chamber is used to extrapolate minute volume, breathing frequency and enhanced pause (Penh). Penh is a dimensionless parameter that is a function of total pulmonary airflow (i.e. the sum of the airflow in the upper and lower respiratory tracts) during the respiratory cycle of a mouse and is […] when airflow is greater. This parameter closely correlates with lung resistance as measured by traditional, invasive techniques using ventilated animals (Hamelmann et al., 1997, Am. J. Respir. Crit. Care Med. 156:766-775).\nIn the chronic model of allergic inflammation, mice are subjected to repeated intranasal OVA administration, producing a chronic inflammatory response. In this model, mice were sensitized by intraperitoneal injection with 100 μg of OVA on days 0 and 14 as in the previous models. OVA was administered at a dose of 500 μg on days 14, 27, 28, 29, 47, 61, 73, 74 and 75. Oligonucleotide, either ISIS 231894 or the mismatch control, was administered via the nose-only aerosol delivery exposure system at a dose of either 5 μg/kg or 500 μg/kg on days 31, 38, 45, 52, 59, 66 and 73. Dexamethasone, an anti-inflammatory agent, was administered by intraperitoneal injection at 2.5 mg/kg on days 47, 62, 73, 74 and 75. Analysis of endpoints was performed on day 76, except cytokines which were evaluated on day 62, 6 hours post OVA challenge. Endpoints were similar to those in the acute and rechallenge model, and included Penh (AHR), BAL inflammatory cell accumulation and cytokines and mucus accumulation."}, "IL-4R alpha mRNA": {"system": "IL-4R alpha mRNA", "assay": "Dose-dependent reduction of IL-4R alpha mRNA in human A549 cells", "format": "cell-based", "from_the_text": "The human lung carcinoma cell line A549 was obtained from the American Type Culture Collection (Manassas, Va.). A549 cells were routinely cultured in DMEM, high glucose (Invitrogen Life Technologies, Carlsbad, Calif.) supplemented with 10% fetal bovine serum, 100 units per ml penicillin, and 100 micrograms per ml streptomycin (Invitrogen Life Technologies, Carlsbad, Calif.). Cells were routinely passaged by trypsinization and dilution when they reached approximately 90% confluence. Cells were seeded into 96-well plates (Falcon-Primaria #3872) at a density of approximately 5000 cells/well for use in oligomeric compound transfection experiments.\nWhen cells reach appropriate confluency, they are treated with oligonucleotide using Lipofectin™ as described. When cells reached 65-75% confluency, they were treated with oligonucleotide. Oligonucleotide was mixed with LIPOFECTIN™ Invitrogen Life Technologies, Carlsbad, Calif.) in Opti-MEM™-1 reduced serum medium (Invitrogen Life Technologies, Carlsbad, Calif.) to achieve the desired concentration of oligonucleotide and a LIPOFECTIN™ concentration of 2.5 or 3 […] oligonucleotide. This transfection mixture was incubated at room temperature for approximately 0.5 hours. For cells grown in 96-well plates, wells were washed once with 100 μL OPTI-MEM™-1 and then treated with 130 μL of the transfection mixture. Cells grown in 24-well plates or other standard tissue culture plates are treated similarly, using appropriate volumes of medium and oligonucleotide. […]\nQuantitation of IL-4R alpha mRNA levels was accomplished by real-time quantitative PCR using the ABI PRISM™ 7600, 7700, or 7900 Sequence Detection System (PE-Applied Biosystems, Foster City, Calif.) according to manufacturer's instructions.\nIn both cell types, at concentrations of 100 nM, 50 nM and 25 nM, ASOs 1-4 each caused dose-dependent reduction of target (TL-4R alpha) mRNA and protein (as measured by flow cytometry) with no significant effect on total cellular mRNA, measured 24 hours following ASO treatment."}, "MUC2 mRNA": {"system": "MUC2 mRNA", "assay": "Reduction of cytokine-induced MUC2 mRNA in human cells", "format": "cell-based", "settings": "human A549 cells (table title)"}, "[4]": {"settings": "mouse, in vivo"}, "[5]": {"settings": "30 μg/kg budesonide alone (Table 9)"}, "[6]": {"settings": "Table 11, 35 μg/kg + 5% DMSO intranasal"}, "[7]": {"settings": "Table 11, 35 μg/kg + 20% DMSO intranasal"}}}
{"compound": "CCCC1O[C@@H]2C[C@H]3[C@@H]4CCC5=CC(=O)C=C[C@]5(C)[C@H]4[C@@H](O)C[C@]3(C)[C@]2(C(=O)CO)O1", "note": "(some centres unmarked) [budesonide]", "values": [{"measurement": "% Eosinophils (BAL)", "setting": "OVA sensitized mice [1]; 0.3 μg/kg inhaled (Table 8)", "value": 41, "unit": "%"}, {"measurement": "Penh (100 mg/mL methacholine)", "setting": "OVA sensitized mice [1]; 0.3 μg/kg inhaled (Table 8)", "value": 4.75}, {"measurement": "% Eosinophils (BAL)", "setting": "OVA sensitized mice [1]; 3 μg/kg inhaled (Table 8)", "value": 32, "unit": "%"}, {"measurement": "Penh (100 mg/mL methacholine)", "setting": "OVA sensitized mice [1]; 3 μg/kg inhaled (Table 8)", "value": 4.5}, {"measurement": "% Eosinophils (BAL)", "setting": "OVA sensitized mice [1]; 30 μg/kg bid inhaled", "value": 20, "unit": "%"}, {"measurement": "Penh (100 mg/mL methacholine)", "setting": "OVA sensitized mice [1]; 30 μg/kg bid inhaled", "value": 3.25}, {"measurement": "% Eosinophils (BAL)", "setting": "OVA sensitized mice [1]; [5]", "value": 20, "unit": "%"}, {"measurement": "PAS+ airways (mucus accumulation)", "setting": "OVA sensitized mice [1]; [5]", "value": 18}, {"measurement": "Penh (100 mg/mL methacholine)", "setting": "OVA sensitized mice [1]; [5]", "value": 5.5}, {"measurement": "% Eosinophils (BAL)", "setting": "OVA sensitized mice [1]; 30 μg/kg inhaled (Table 8)", "value": 21, "unit": "%"}, {"measurement": "Penh (100 mg/mL methacholine)", "setting": "OVA sensitized mice [1]; 30 μg/kg inhaled (Table 8)", "value": 3.25}, {"measurement": "% Eosinophils (BAL)", "setting": "OVA sensitized mice [1]; 300 μg/kg inhaled (Table 8)", "value": 15, "unit": "%"}, {"measurement": "Penh (100 mg/mL methacholine)", "setting": "OVA sensitized mice [1]; 300 μg/kg inhaled (Table 8)", "value": 3.75}, {"measurement": "minimum effective dose", "setting": "OVA sensitized mice [1]; inhaled", "value": 0.03, "unit": "mg/kg"}, {"measurement": "Nasal rubs", "setting": "OVA sensitized mice [2]; Table 10, 3.5 μg/kg intranasal", "value": 5, "unit": "per 5 min"}, {"measurement": "Sneezes", "setting": "OVA sensitized mice [2]; Table 10, 3.5 μg/kg intranasal", "value": 6, "unit": "per 5 min"}, {"measurement": "% Nasal lavage eosinophils", "setting": "OVA sensitized mice [2]; Table 10, 35 μg/kg intranasal", "value": 11, "unit": "%"}, {"measurement": "% Nasal lavage neutrophils", "setting": "OVA sensitized mice [2]; Table 10, 35 μg/kg intranasal", "value": 28, "unit": "%"}, {"measurement": "Nasal rubs", "setting": "OVA sensitized mice [2]; Table 10, 35 μg/kg intranasal", "value": 4.5, "unit": "per 5 min"}, {"measurement": "Sneezes", "setting": "OVA sensitized mice [2]; Table 10, 35 μg/kg intranasal", "value": 2, "unit": "per 5 min"}, {"measurement": "% Nasal lavage eosinophils", "setting": "OVA sensitized mice [2]; Table 10, 350 μg/kg intranasal", "value": 4, "unit": "%"}, {"measurement": "% Nasal lavage neutrophils", "setting": "OVA sensitized mice [2]; Table 10, 350 μg/kg intranasal", "value": 12, "unit": "%"}, {"measurement": "Nasal rubs", "setting": "OVA sensitized mice [2]; Table 10, 350 μg/kg intranasal", "value": 4, "unit": "per 5 min"}, {"measurement": "Sneezes", "setting": "OVA sensitized mice [2]; Table 10, 350 μg/kg intranasal", "value": 3, "unit": "per 5 min"}, {"measurement": "% Nasal lavage eosinophils", "setting": "OVA sensitized mice [2]; Table 10, 500 μg/kg intranasal", "value": 2, "unit": "%"}, {"measurement": "% Nasal lavage neutrophils", "setting": "OVA sensitized mice [2]; Table 10, 500 μg/kg intranasal", "value": 6, "unit": "%"}, {"measurement": "Nasal rubs", "setting": "OVA sensitized mice [2]; Table 10, 500 μg/kg intranasal", "value": 2, "unit": "per 5 min"}, {"measurement": "Sneezes", "setting": "OVA sensitized mice [2]; Table 10, 500 μg/kg intranasal", "value": 2, "unit": "per 5 min"}, {"measurement": "% Nasal lavage eosinophils", "setting": "OVA sensitized mice [2]; [6]", "value": 7, "unit": "%"}, {"measurement": "% Nasal lavage neutrophils", "setting": "OVA sensitized mice [2]; [6]", "value": 9, "unit": "%"}, {"measurement": "Nasal rubs", "setting": "OVA sensitized mice [2]; [6]", "value": 0.6, "unit": "per 5 min"}, {"measurement": "Sneezes", "setting": "OVA sensitized mice [2]; [6]", "value": 2.8, "unit": "per 5 min"}, {"measurement": "Tissue eosinophils", "setting": "OVA sensitized mice [2]; [6]", "value": 174, "unit": "per mm^2"}, {"measurement": "% Nasal lavage eosinophils", "setting": "OVA sensitized mice [2]; [7]", "value": 7, "unit": "%"}, {"measurement": "% Nasal lavage neutrophils", "setting": "OVA sensitized mice [2]; [7]", "value": 12, "unit": "%"}, {"measurement": "Nasal rubs", "setting": "OVA sensitized mice [2]; [7]", "value": 1.2, "unit": "per 5 min"}, {"measurement": "Sneezes", "setting": "OVA sensitized mice [2]; [7]", "value": 5.8, "unit": "per 5 min"}]}
{"compound": "C[C@@H]1C[C@H]2[C@@H]3CCC4=CC(=O)C=C[C@]4(C)[C@@]3(F)[C@@H](O)C[C@]2(C)[C@@]1(O)C(=O)CO", "note": "[dexamethasone, reference compound]", "values": [{"measurement": "% Eosinophils (BAL)", "setting": "OVA sensitized mice [3]", "value": 25, "unit": "%"}, {"measurement": "% Neutrophils (BAL)", "setting": "OVA sensitized mice [3]", "value": 58, "unit": "%"}]}
{"compound": "ASO3: antisense oligonucleotide targeted to human IL-4R alpha; TGGAAAGGCTTATACCCCTC; SEQ ID NO: 25 (chemistry not given here)", "values": [{"measurement": "IL-4R alpha mRNA", "setting": "IL-4R alpha mRNA; 25 nM", "value": "45 % of untreated control"}, {"measurement": "IL-4R alpha mRNA", "setting": "IL-4R alpha mRNA; 50 nM", "value": "29 % of untreated control"}, {"measurement": "IL-4R alpha mRNA", "setting": "IL-4R alpha mRNA; 100 nM", "value": "17 % of untreated control"}, {"measurement": "MUC-2 mRNA", "setting": "MUC2 mRNA; 25 nM", "value": "86 % of untreated control"}, {"measurement": "MUC-2 mRNA", "setting": "MUC2 mRNA; 50 nM", "value": "63 % of untreated control"}, {"measurement": "MUC-2 mRNA", "setting": "MUC2 mRNA; 100 nM", "value": "39 % of untreated control"}, {"measurement": "macrophage infiltrate in the lung, in words", "setting": "[4]", "value": "dose-related macrophage infiltrate was observed"}, {"measurement": "serum chemistry markers or lung morphology (histology), in words", "setting": "[4]; ip", "value": "no change"}]}
